Values of other authors in patent publication US10806826B2, “Bone graft substitute containing a temporary contrast agent and a method of generating such and a method of use thereof” (BACTERIN INTERNATIONAL, INC., priority 2013, dated 2020).
Like-named read-outs stand apart in the source and are kept apart here.

How the values were obtained:
[1] = intravenous
[2] = oral, dosage 2-12 mL/kg
[3] = intravascular

## FC1(F)C(F)(F)C(F)(F)C2(F)C(F)(F)C(F)(F)C(F)(F)C(F)(F)C2(F)C1(F)F (stereo not shown) [Perfluorodecalin]
[1]
  Clearance/Half-life (t1/2): 140 h

## FC(F)(F)C(F)(F)C(F)(F)N(C(F)(F)C(F)(F)C(F)(F)F)C(F)(F)C(F)(F)C(F)(F)F [Perfluorotripropylamine]
[1]
  Clearance/Half-life (t1/2): 1510 h

## FC(F)(F)C(F)(F)C(F)(F)C(F)(F)C(F)(F)C(F)(F)C(F)(F)C(F)(F)Br [Perfluorooctyl bromide, perfluorooctyl bromide]
[2]
  Clearance: excreted within 24 hours: >95% excreted
[3]; dosage 1.2 g/kg
  Clearance/Half-life (t1/2): 9.4 h
[3]; dosage 1.8 g/kg
  Clearance/Half-life (t1/2): t1/2 = 6.1 hours

## CC(=O)N(CC(O)CO)c1c(I)c(C(=O)NCC(O)CO)c(I)c(C(=O)NCC(O)CO)c1I (stereo not shown) [Iohexol]
[3]; dosage 500-1500 mgl/kg
  Clearance: excreted within 24 hours: ~90% excreted
[1]; dosage varies by imaging needs
  Clearance/Half-life (t1/2): t1/2 = 30-60 minutes
